The values that follow come from patent publication US20100288276A1, “COMPOSITIONS FOR TREATING PARKINSON'S DISEASE” (VECTURAL LIMITED, priority 2007, published 2010).

Molecules are shown by their SMILES. Structures can show the parent of a compound that is named as a salt. Where two headings read alike, the source gives them in different places.

A word on the AUC(0-t): it is the area under the concentration-time curve up to a stated or last time point. One may read the Cmax as the maximum level reached in the sampled fluid or tissue. As a reminder, the Tmax is the time from dosing to the highest level.

Series [1] can be described thus: Solubility in pMDI propellant formulations. In kind it is physicochemical. The settings on record: within ethanol-based HFA 134a pMDI formulations. As for the experimental part: Previously a low dose (<25 μg/50 μl) HFA134a/HFA 227 solution formulation has been produced but only at high ethanol contents (50% w/w).
Series [2] in a line: Pharmacokinetics after pulmonary inhalation of apomorphine. In kind it is in vivo, patients. The settings on record: for AUC(0-t) / AUC(0-inf) / Cmax / Tmax: human, plasma, inhaled or intranasal; for AUC(0-t): read-out: AUC(0-t), Mean (SD) (converted); for AUC(0-inf): read-out: AUC(0-∞), Mean (SD) (converted); for Cmax: read-out: Cmax, Mean (SD).
In series [3] the test system is Parkinson's Disease patients. Put plainly: Therapeutic effect (conversion from off to on state) after pulmonary inhalation, clinical trial. The series is classed as in vivo.
The nature of series [4]: Safety results: treatment emergent adverse events after inhaled apomorphine. The settings on record: Nominal Doses of 400 μg, 1000 μg and 1600 μg. The series is classed as in vivo, patients. How it is done:
Safety results: Few patients experienced treatment emergent adverse events (TEAEs) and there were no notable differences in incidence or types of TEAEs among the treatment groups. […] Most common TEAEs at <24 h post dose were nervous system disorders.

The nature of series [5]: Visual assessment of pMDI suspension formulations. The series is classed as physicochemical. As for the experimental part:
Nine formulations (see Table 1 and Table 2) were manufactured.
Reduction of the drug concentration (300 μg/50 μl) was investigated in Formulations 4-6 (see FIGS. 5-8).

For series [6] the following is noted: nasal administration; cited from earlier work.
The test system of series [7] is Parkinson's Disease patients. The settings on record: injected under the skin; cited from earlier work.
Setting [8] is: 1000 μg inhaled, N = 6, 30% apomorphine in 70% lactose blend.

Consider `CN1CCc2cccc3c2[C@H]1Cc1ccc(O)c(O)c1-3` [apomorphine hydrochloride], for which the solubility entry in series [1] is on record as “low solubility”.
For `CN1CCc2cccc3c2[C@H]1Cc1ccc(O)c(O)c1-3` [Apomorphine, apomorphine], the “k, Mean (SD)” value is 0.01 (0.00) in series [2] (400 μg inhaled, N = 6, 20% apomorphine in 80% lactose blend); 0.01 (0.00) in series [2] (setting [8]); 0.02 (0.00) in series [2] (1600 μg inhaled, N = 6, 30% apomorphine in 70% lactose blend). For the same compound, the “tmax, Mean (SD)” value in series [2] (400 μg inhaled, N = 6, 20% apomorphine in 80% lactose blend, in min) is reported as 1.0 (0.0). Besides, the “AUC(0-∞), Mean (SD)” value in series [2] (setting [8]) is listed as 216.93 (99.30) ng · min/mL. For the same compound, the AUC(0-t) is 0.792 ng·h/mL in series [2] (400 ug), 2.81 ng·h/mL in series [2] (1000 ug) and 4.51 ng·h/mL in series [2] (1600 ug). Also, the AUC(0-inf) in series [2] (400 ug) was 0.945 ng·h/mL; in series [2] (1600 ug) it was 5.03 ng·h/mL. The Cmax in series [2] (400 ug) is 3.03 ng/mL; in series [2] (1000 ug) it was 10 ng/mL; in series [2] (1600 ug), 11.9 ng/mL. For the same compound, the Tmax in series [2] (1000 ug, 1000 μg inhaled, N = 6, 30% apomorphine in 70% lactose blend, read-out: tmax, Mean (SD) (converted)) is 2.6 min; in series [2] (1600 ug, 1600 μg inhaled, N = 6, 30% apomorphine in 70% lactose blend, read-out: tmax, Mean (SD) (converted)), 2.2 min; in series [2] (Tmax / time of peak apomorphine plasma concentration, pulmonary inhalation) it was 1 to 3 min; in series [6], “approximately 15 minutes”. In series [2] (pulmonary inhalation, 400-1600 μg), the “dose proportionality of AUC(0-t), AUC(0-∞) and Cmax” value is reported as “Dose proportionality was observed”. Moreover, the “mean duration of the therapeutic effect” value in series [3] (clinical trial, pulmonary inhalation) worked out at 75 min. In series [3] (majority of patients, after inhaling apomorphine), the “onset of the therapeutic effect (conversion)” value is no more than 10 min. The “conversion from the off to the on state” value in series [3] (some patients, as quickly as, pulmonary inhalation) stood at 2 min. Besides, the tolerability result in series [4] is on record as “well tolerated”. Moreover, the “suspension behaviour (visual assessment)” value in series [5] (264 μg/50 μl suspension in HFA 227) is reported as “cream (float)”; in series [5] (300 μg/50 μl in pure HFA134a) it was “rapidly sediment”; in series [5] (600 μg/50 μl in pure HFA134a), “rapidly sedimented”. In addition, the density entry in series [5] (density matched at approximately 60% w/w HFA 227 and 40% w/w HFA134a) is “about 1.33 g/ml”. Besides, in series [7], the “period for which the effect is maintained” value was “about 60 minutes”. Besides, the “time to bring about an on time” value in series [7] is 7 to 10 min.
